These results are taken from patent US20090048295A1, “SUBSTITUTED 5,6,7,8-TETRAHYDROQUINOLINE DERIVATIVES, COMPOSITIONS, AND METHODS OF USE THEREOF” (priority 2007, published 2009).

Assay [1] concerns the target T1, C5a receptor (Homo sapiens, UniProt P21730).
T1 sequence (P21730 1-350): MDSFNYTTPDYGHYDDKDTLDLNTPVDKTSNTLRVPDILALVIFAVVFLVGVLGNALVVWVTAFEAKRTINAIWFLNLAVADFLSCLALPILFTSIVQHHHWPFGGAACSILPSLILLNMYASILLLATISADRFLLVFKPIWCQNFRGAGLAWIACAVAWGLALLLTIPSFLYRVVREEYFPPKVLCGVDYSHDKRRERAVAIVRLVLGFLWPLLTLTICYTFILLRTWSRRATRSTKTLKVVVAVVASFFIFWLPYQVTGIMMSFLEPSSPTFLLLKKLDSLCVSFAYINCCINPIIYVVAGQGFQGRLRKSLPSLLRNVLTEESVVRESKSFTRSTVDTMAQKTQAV
Briefly: [125I]-C5a Radioligand Binding Assay (competition binding, differentiated U937 cells).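 For all read-outs here: cells preincubated with compound 30 min at room temperature, then 60 min at 4 °C with radioligand, bound counts read by scintillation, nonspecific binding defined with 100 nM C5a.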 The note with it: for inhibition at 1 µM: read-out: [125I]-C5a Binding % Inhibition 1 μM, test compound 1 μM; for inhibition at 1 µM / inhibition at 10 µM / [125I]-C5a Binding % Inhibition 1 μM / [125I]-C5a Binding % Inhibition 10 μM: [125I]-C5a 0.05 nM, U937 cells, multiple values = duplicate experiments; for inhibition at 10 µM: read-out: [125I]-C5a Binding % Inhibition 10 μM, test compound 10 μM; for [125I]-C5a Binding % Inhibition 1 μM: test compound 1 μM; for [125I]-C5a Binding % Inhibition 10 μM: test compound 10 μM.
Experimental: Competition binding assays for C5a receptors were performed by incubation of differentiated U937 cells (200,000 cells/well), test compound (1% DMSO) and [^125I]-C5a (Bolton & Hunter labeled, Perkin Elmer, specific activity=2200 Ci/mmol, 0.05 nM final) in binding buffer consisting of 50 mM HEPES, 5 mM MgCl2, 1 mM CaCl2, 0.5% protease-free BSA, 0.02% NaN3, pH 7.4. 100× solutions of test compounds were prepared in DMSO and further diluted in binding buffer. Non-specific binding was defined in wells containing 100 nM recombinant C5a. Cells and compound were pre-incubated for 30 min at RT. After addition of the radioligand, further incubation for 60 min occurred at 4° C. Cells were harvested on GF/B filters—presoaked in 0.5% polyethylenimine, followed by washing with binding buffer containing 500 mM NaCl, pH 7.4. Filter bound radioactivity was determined by liquid scintillation counting. IC50 and Ki values were calculated using non-linear regression in Graphpad Prism. Ki is calculated using the equation of Cheng and Prusoff (Biochem. Pharmacol. 1973, 22: 3099-3108)

Assay [2] addresses T1, C5a receptor. Briefly: Calcium Mobilization Assay (C5a-induced Ca2+ mobilization, FLIPR, differentiated U937 cells). Type of assay: cell-based. On the set-up: endogenous in cells; host or cells: U937 cells differentiated with dibutyryl cAMP. The note with it: […] recombinant human C5a, 20 min pre-incubation, multiple values = duplicate experiments, read-out: C5a Induced Ca Mobil. Average IC50. Here is the method: U937 cells (human monocytic cell line) were cultured in RPMI-1640 medium supplemented with 10% fetal bovine serum, 10 mM HEPES, 0.11 g/L pyruvate, 0.29 g/L L-glutamine, 100 IU/mL penicillin G and […] streptomycin. Dibutyryl cAMP (1 mM) was added to induce differentiation 2 or 3 days prior to loading the cells with 4.4 μM Fluo-3AM (Molecular Probes) for 30 min at 37° C. in RPMI medium containing 20 mM HEPES, 0.1% bovine serum albumin (BSA) and 5 mM probenecid. After washing, cells were dissolved at 2×10^6 cells/ml in HBSS buffer (Invitrogen 14190-094) supplemented with 10 mM HEPES, 2.5 mM probenecid and 0.1% BSA (pH=7.4), and sedimented by 1 min centrifugation (1500 rpm) in black 96-well plates (Costar) (200,000 cells/well). A 100× concentration range of test compounds was prepared in DMSO and further diluted in HBSS buffer. U937 cells were pre-incubated with compound for 20 minutes at room temperature (1% DMSO), before recombinant human C5a (Sigma) was added to the cells (1.5 nM). Changes in intracellular free Ca^2+ concentration were measured using the Fluorescent Imaging Plate Reader (FLIPR, Molecular Devices). Fluorescence was recorded every second from 10 seconds before the addition of C5a until 2 min after the addition. The maximal fluorescence obtained during this time frame was used for further calculations.
Background: Calcium assays in cells follow changes in intracellular calcium, usually with a dye or a luminescent sensor.

Several values for one entry are separate records, joined by “and”; a condition that tells them apart may be missing. Identical values can stand only once.

Take `CCc1cccc(CC)c1-c1cc(OC)c2c(n1)CCCC2N(CC)c1cccc2ccccc12` (racemic) [Compound 12, (±)-[2-(2,6-Diethyl-phenyl)-4-methoxy-5,6,7,8-tetrahydro-quinolin-5-yl]-ethyl-naphthlen-1-yl-amine]: in assay [1], the inhibition at 1 µM was determined as 94%; the inhibition at 10 µM amounted to 97%; the “[125I]-C5a Binding % Inhibition 1 μM” value is 88% and 98% and 101% and 100% and 81%; the “[125I]-C5a Binding % Inhibition 10 μM” value was 92% and 102, 102, % and 90%.
Regarding `CCc1cccc(CC)c1-c1cc(CC)c2c(n1)CCCC2Nc1cc(OC)ccc1C` (racemic) [Compound 25, (±)-[2-(2,6-Diethyl-phenyl)-4-ethyl-5,6,7,8-tetrahydro-quinolin-5-yl]-(5-methoxy-2-methyl-phenyl)-amine], the IC50 in assay [2] came to 244 nM.
On the same count and under the same terms, as for `CCCC1(Nc2cc(OC)ccc2C)CCCc2nc(-c3c(CC)cccc3CC)cc(OC)c21` (racemic) [Compound 70, (±)-[2-(2,6-Diethyl-phenyl)-4-methoxy-5-propyl-5,6,7,8-tetrahydro-quinolin-5-yl]-(5-methoxy-2-methyl-phenyl)-amine], the figure is 3470 nM; as for `CCc1cccc(CC)c1-c1cc(OC(C)C)c2c(n1)CCCC2Nc1ccccc1CCO` (stereo not shown) [Compound 1], 7.3 nM; as for `CCc1cccc(CC)c1-c1cc(OC)c2c(n1)CCCC2Nc1cc(C(F)(F)F)ccc1CO` (stereo not shown) [Compound 2], 22 nM.
Turning to `CCc1cccc(CC)c1-c1cc(OC)c2c(n1)CCCC2Nc1cc(Cl)ccc1CO` (stereo not shown) [Compound 3], the IC50 in assay [2] is 26 nM.
Take `CCc1cccc(CC)c1-c1cc(OC)c2c(n1)CCC[C@H]2N(CC)c1cccc2ccccc12` [Compound 4]: in assay [1], the inhibition at 1 µM was 94%, the inhibition at 10 µM was found to be 95%, the “[125I]-C5a Binding % Inhibition 1 μM” value came to 99% and the “[125I]-C5a Binding % Inhibition 10 μM” value was determined as 101%.
On to `CCc1cccc(CC)c1-c1cc(OC2CCCC2)c2c(n1)CCCC2N(CC)c1cccc2ccccc12` (stereo not shown) [Compound 6], for which the IC50 in assay [2] was found to be 37 nM.
As to `CCc1cccc(CC)c1-c1cc(OC)c2c(n1)CCCC2Nc1ccc(F)cc1CO` (stereo not shown) [Compound 7], the 50% inhibitory concentration (IC50) in assay [2] worked out at 53 nM.
In the case of `CCN(c1cccc2ccccc12)C1CCCc2nc(-c3c(Cl)cccc3OC)cc(OC)c21` (stereo not shown) [Compound 13], the IC50 in assay [2] came out at 109 nM.
On the same count and under the same terms, as for `CCc1cccc(CC)c1-c1cc(OC2CCCC2)c2c(n1)CCCC2Nc1cc(OC)ccc1C` (stereo not shown) [Compound 17], the figure is 134 nM; as for `CCc1cccc(CC)c1-c1cc(OC(C)C)c2c(n1)CCCC2Nc1cc(OC)ccc1C` (stereo not shown) [Compound 18], 137 nM; as for `CCc1cccc(CC)c1-c1cc(CC)c2c(n1)CCCC2N(CC)c1cccc2ccccc12` (stereo not shown) [Compound 23], 191 nM.
Same read-out and setting: in the case of `CCc1cccc(CC)c1-c1cc(OC)c2c(n1)CCCC2Nc1ccccc1C(=O)O` (stereo not shown) [Compound 33] it was 414 nM.
With `CCc1cccc(CC)c1-c1cc(OC)c2c(n1)CCCC2Nc1ccccc1C` (stereo not shown) [Compound 46], in assay [1], the inhibition at 1 µM was found to be 81% and the inhibition at 10 µM stood at 87%.
In the case of `CCc1cccc(CC)c1-c1cc(OCCN(C)C)c2c(n1)CCCC2Nc1cc(OC)ccc1C` (stereo not shown) [Compound 62], the IC50 in assay [2] amounted to 2320 nM.
The same measure, in the same setting: in the case of `CCc1cccc(CC)c1-c1cc(OC)c2c(n1)CCCC2Oc1ccccc1CCO` (stereo not shown) [Compound 64] it was 2390 nM; in that of `CCc1cccc(CC)c1-c1cc(OC)c2c(n1)CCCC2Nc1cnccc1CO` (stereo not shown) [Compound 71], 3470 nM; in that of `CCc1cccc(CC)c1-c1cc(OC)c2c(n1)CCCC2Nc1ccccc1CN` (stereo not shown) [Compound 75], 4960 nM.
Consider `CCc1cccc(CC)c1-c1cc(OC)c2c(n1)CCCC2N1CCc2ccc(OC)cc2C1` (stereo not shown) [Compound 100], for which, in assay [1], the inhibition at 1 µM was found to be 70% and the inhibition at 10 µM was found to be 82%.
`CCc1cccc(CC)c1-c1cc(OC)c2c(n1)CCCC2N1CCc2ccc(C(F)(F)F)cc2C1` (stereo not shown) [Compound 101]: in assay [1], the inhibition at 1 µM was found to be 75% and the inhibition at 10 µM was 79%.
Take `CCc1cccc(CC)c1-c1cc(OC)c2c(n1)CCCC2Nc1cccc2ccccc12` (stereo not shown) [Compound 103]: in assay [1], the “[125I]-C5a Binding % Inhibition 1 μM” value amounted to 48% and the “[125I]-C5a Binding % Inhibition 10 μM” value was found to be 61%.
Consider `CCN(c1cccc2ccccc12)C1CCCc2nc(-c3ccccc3-c3ccccc3)cc(OC)c21` (stereo not shown) [Compound 107], for which, in assay [1], the inhibition at 1 µM is 76% and the inhibition at 10 µM turned out to be 84%.
As to `COc1cc(-c2c(C)cccc2C)nc2c1C(N(C)c1c(C)cccc1C)CCC2` (stereo not shown) [Compound 114], in assay [1], the inhibition at 1 µM was 63% and the inhibition at 10 µM turned out to be 73%.
For the molecule `CCc1cccc(CC)c1-c1cc(OC)c2c(n1)CCCC2N(C)c1cccc2c(OC)cccc12` (stereo not shown) [Compound 118], in assay [1], the inhibition at 1 µM was determined as 71% and the inhibition at 10 µM amounted to 77%.
For `CCc1cccc(CC)c1-c1cc(OC)c2c(n1)CCCC2N(C)c1cc(-c2ccccc2)ccc1C` (stereo not shown) [Compound 122], in that order: 81% and 84%.
As for `CCc1cccc(CC)c1-c1cc(OC)c2c(n1)CCCC2N1CCc2cc(OC)c(OC)cc2C1` (stereo not shown) [Compound 127], in assay [1], the inhibition at 1 µM is -9% and the inhibition at 10 µM turned out to be 42%.
Regarding `CCc1cccc(CC)c1-c1cc(OC)c2c(n1)CCCC2Nc1cccc2ccccc12` (stereo not shown) [Compound 132], in assay [1], the “[125I]-C5a Binding % Inhibition 1 μM” value came to 12% and the “[125I]-C5a Binding % Inhibition 10 μM” value came out at 34%.
For the molecule `CCN(c1cccc2ccccc12)C1CCCc2nc(-c3ccsc3)cc(OC)c21` (stereo not shown) [Compound 134], in assay [1], the inhibition at 1 µM is -8% and the inhibition at 10 µM turned out to be 40%.
On the same counts, the results for `CCN(c1cccc2ccccc12)C1CCCc2nc(-c3cccnc3)cc(OC)c21` (stereo not shown) [Compound 136] are 2% and 35%.
`CCc1cccc(CC)c1-c1cc(OC)c2c(n1)CCCC2Oc1ccccc1CO` (stereo not shown) [Compound 139]: in assay [2], the IC50 is above 10000 nM.
Regarding `CCc1cccc(CC)c1-c1cc(OC)c2c(n1)CCCC2(C)Nc1cc(OC)ccc1C` (stereo not shown) [Compound 140], in assay [2], the IC50 is above 10000 nM.
Still for that read-out and setting: in the case of `CCc1cccc(CC)c1-c1cc(OC)c2c(n1)CCCC2Nc1ccc(CO)cc1C` (stereo not shown) [Compound 141] it was above 10000 nM; in that of `CCc1cccc(CC)c1-c1cc(OC)c2c(n1)CCCC2Nc1cccc(CO)c1` (stereo not shown) [Compound 142], above 10000 nM.
For the molecule `CCc1cccc(CC)c1-c1cc(OC)c2c(n1)CCCC2Oc1cc(OC)ccc1C=O` (stereo not shown) [Compound 143], the IC50 in assay [2] was above 10000 nM.
In the case of `CCc1cccc(CC)c1-c1cc(OC)c2c(n1)CCCC2NCc1ccccc1N` (stereo not shown) [Compound 145], the IC50 in assay [2] was above 10000 nM.
Same read-out and setting: as for `CCc1cccc(CC)c1-c1cc(O)c2c(n1)CCCC2Nc1cc(O)ccc1C` (stereo not shown) [Compound 146], the figure is above 10000 nM; as for `CCOC(=O)c1ccccc1OC1CCCc2nc(-c3c(CC)cccc3CC)cc(OC)c21` (stereo not shown) [Compound 150], above 10000 nM; as for `CCN(c1cccc2ccccc12)C1CCCc2nc(-c3c(C)noc3C)cc(OC)c21` (stereo not shown) [Compound 151], above 10000 nM.

B1: C5a: anaphylatoxin C5a, 74-amino acid N-terminal fragment of complement factor C5; recombinant human C5a (Sigma), radioligand [125I]-C5a (protein, UniProt P01031 678-751, looked up)
C5a anaphylatoxin: TLQKKIEEIAAKYKHSVVKKCCYDGACVNNDETCEQRAARISLGPRCIKAFTECCVVASQLRANISHKDMQLGR
modifications: C5a anaphylatoxin also 125I-labelled radioligand
In the case of B1, the Kd in assay [1] (read-out: C5a Kd, Kd of C5a used for the Ki calculation) is 0.324 nM.

The term inhibition denotes the relative decrease from the control value, in per cent. What is called IC50 is the concentration that inhibits the measured activity by half. In general, Kd refers to a measure of binding affinity in units of concentration.
